Laboratory results from patent US9987296B2, “Compositions including anthocyanin or anthocyanidin for the prevention or treatment of Articular cartilage-associated conditions” (priority 2008, dated 2018).
Like-named read-outs stand apart in the source and are kept apart here.

How the values were obtained:
[1] = system: rodent pancreatic beta-cells; conditions: in culture, with 4 and 10 mM glucose; cited from earlier work
[2] = system: osteoarthritic synovium explants; conditions: cited from earlier work
[3] = system: bovine chondrocytes; experiment: Matrix synthesis rate (35S) of bovine chondrocytes in alginate beads; assay type: cell-based; conditions: 100 uM with IL-1 5 ng/mL
Description: Chondrocytes were isolated from weight-bearing regions of young (18-30 months old) bovine femoral condyles. Primary cells were obtained from 3 different animals and suspended in beads of 2% alginate. The alginate beads were precultured in DMEM supplemented with 10% calf serum for 48 hours. Before the experiments, the chondrocytes were serum-starved overnight with 0.1% serum to reduce the effect of serum and to reduce anabolic activity to baseline.
For each treatment condition, 10 millicuries of ^35S was added to each well and incubated for the appropriate duration. At the appropriate harvest time point, each well was then washed extensively with PBS (5-6 times with 500 uL, of PBS), before trypsin and EDTA was added to dissolve alginate. After 20-30 minutes, the dissolved gels and released cells were transferred into 1.5 ml Eppendorf tubes with 150 uL, of calf serum (to promote pellet formation) and the cells were centrifuged at 2000 rpm for 5 minutes. The supernatant was removed via pipette without disturbing the cell pellet. The remaining cell and supernatant (approximately 300 ul) was then mixed with 500 uL of PBS and transferred to scintillation vials, to which 5 ml of scintillation fluid was dispensed. Each scintillation vial was capped, thoroughly vortexed and then placed in a gamma counter to measure gamma radiation emission for each sample. Each sample was measured for 5 minutes.

[4] = system: Human articular chondrocytes; experiment: Cell viability (calcein AM / ethidium homodimer staining); assay type: cell-based; conditions: concentrations above 100 uM up to 500 uM, 96 hours
From the text: Chondrocytes were isolated from non-arthritic regions of adult human articular cartilage (N=3 donors) and expanded in tissue culture flasks in DMEM supplemented with 10% calf serum.
At higher concentrations, the color of the anthocyanin interfered with the spectrophotometer reading; therefore, cell viability was additionally measured with calcein staining as follows: Live and dead cells were simultaneously viewed in situ with a confocal microscope (LSM 510; Zeiss, Wetzlar, Germany), using a fluorescent double stain. Calcein AM (1 uM; Invitrogen, Carlsbad, Calif.), a fluorescein derivative that is metabolized by nonspecific esterase present in viable cells, was used to stain live cells. The use of 8 uM ethidium homodimer (Invitrogen), a nucleic acid stain that is excluded by intact cell membranes, enabled visualization of the nuclei of dead cells. After 96-hour exposure to the appropriate concentration of anthocyanins, chondrocytes were cultured in DMEM supplemented with Calcein AM and ethidium homodimer for 45 minutes. Live and dead cells were counted using an automated image analysis script written in Matlab (MathWorks, Natick, Mass.) to measure percentage cell viability.

For `Oc1ccc(-c2[o+]c3cc(O)cc(O)c3cc2O)cc1.[Cl-]` [Pelargonidin Chloride], the insulin secretion [1] is given as “stimulate insulin secretion”.

For `N[C@H]1C(O)O[C@H](CO)[C@@H](O)[C@@H]1O` (stereo partly drawn) [glucosamine], the “increase of HA production” value ([2]; 0.5 mM) is given as “did not” and the “increase of HA production” value ([2]; 5 mM) is given as “approximately 2 fold”.

For `OC[C@H]1OC(Oc2cc3c(O)cc(O)cc3[o+]c2-c2ccc(O)cc2)[C@H](O)[C@@H](O)[C@H]1O.[Cl-]` (stereo partly drawn) [pelargonidin-3-galactoses, reference compound], the insulin secretion [1] is listed as “stimulate insulin secretion”.

In the case of Delphinidin-3-O-Glucoside, the insulin secretion [1] is given as “stimulate insulin secretion”, the “matrix synthesis rates (anti-arthritic effect)” value (“matrix synthesis rates” for short) ([3]; 12 hours, listed as Delphinidin-3-O-glucoside) is given as “reversed the effect of IL-1 suppression on matrix synthesis rates” and the “matrix synthesis rates” value ([3]; 12 hours, listed as delphinidin-3-0-glucoside) is given as “anti-arthritic effect”. For the same molecule, the “matrix synthesis rates” value ([3]; 12 hours, listed as delphinidin-3-O-glucoside) was “anti-arthritic effect”, the “matrix synthesis rates” value ([3]; 24 hours, listed as Delphinidin-3-O-glucoside) was “reversed the effect of IL-1 suppression on matrix synthesis rates” and the “matrix synthesis rates” value ([3]; 24 hours, listed as delphinidin-3-0-glucoside) was “anti-arthritic effect”. For the same molecule, the “matrix synthesis rates” value ([3]; 24 hours, listed as delphinidin-3-O-glucoside) was “anti-arthritic effect” and the “toxicity relative to the other compounds tested” value [4] was “least toxic at 200 μM”.
